Laboratory results from PubChem BioAssay AID2744 (NMMLSC, 2010).
The source made the active and inactive calls.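 Rule for the calls: active = fitted half-maximal concentration for changing reporter fluorescence at or below a set limit; inactive = the rest.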

Biological target: Citrate synthase, peroxisomal (Saccharomyces cerevisiae (strain ATCC 204508 / S288c)) (UniProt P08679)
Test: yeast TOR pathway CIT2-GFP reporter potency – flow cytometry, MLPCN hits, dose response (AID 2744)
Details: S. cerevisiae CIT2-GFP strain, 3 h, at 33 µM (top of the series)

Chain of Citrate synthase, peroxisomal (Saccharomyces cerevisiae (strain ATCC 204508 / S288c)) (P08679 whole entry, looked up): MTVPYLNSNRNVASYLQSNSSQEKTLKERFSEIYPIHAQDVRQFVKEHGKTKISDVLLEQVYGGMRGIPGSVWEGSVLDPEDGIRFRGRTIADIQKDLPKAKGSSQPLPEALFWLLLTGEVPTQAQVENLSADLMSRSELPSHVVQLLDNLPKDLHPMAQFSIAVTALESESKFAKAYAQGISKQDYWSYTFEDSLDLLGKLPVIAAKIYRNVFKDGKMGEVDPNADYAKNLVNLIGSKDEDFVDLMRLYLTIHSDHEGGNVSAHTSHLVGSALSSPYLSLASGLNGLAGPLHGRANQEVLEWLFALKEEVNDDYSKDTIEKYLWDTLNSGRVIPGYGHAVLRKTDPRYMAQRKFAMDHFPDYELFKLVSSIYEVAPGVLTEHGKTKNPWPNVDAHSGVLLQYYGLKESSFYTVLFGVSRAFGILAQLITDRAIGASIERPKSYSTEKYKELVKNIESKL

Row | SMILES | GFP fluorescence, higher = induction
1 | Cc1ccccc1[C@]1(C)ON(c2ccccc2C(F)(F)F)C1=O | inactive
2 | COc1cc(N=c2ssnc2Cl)c(OC)cc1Cl | inactive
3 | O=C(Nc1ccccc1)c1nnsc1S(=O)(=O)c1ccc(Cl)cc1 | inactive
4 | CCCc1ccc(OCC(=O)NNC(=S)NC(=O)c2ccco2)cc1 | inactive
5 | O=C1C(Cl)=C(N2CCN(Cc3ccccc3)CC2)C(=O)N1c1ccccc1 | inactive
6 | Clc1cccc(CN2COc3c(cc(Cl)c4cccnc34)C2)c1 | inactive
7 | Clc1ccc(N=c2ssnc2Cl)cc1 | inactive
8 | Cc1nn2c(-c3ccncc3)nnc2c2ccccc12 | inactive
9 | O=C(c1ccccc1)c1ccccc1N1C(=O)C=CC1=O | inactive
10 | COC(=O)CCS(=O)(=O)c1nc(-c2ccccc2)cc(C(F)(F)F)n1 | inactive
11 | CC(Oc1cc2oc(=O)c3c(c2cc1Cl)CCC3)C(=O)NCCN1CCOCC1 (stereo unspecified) | inactive
12 | O=C1c2ccccc2C(=O)C2OC12 (stereo unspecified) | inactive
13 | N=C1S/C(=C\c2ccco2)C(=O)N1c1nccs1 | inactive
14 | O=C1N(c2ccccc2C(F)(F)F)O[C@]1(c1ccccc1)C1CCCCC1 | inactive
15 | CC(C)(C)c1ccc(NC(=O)COC(=O)c2ccc([N+](=O)[O-])s2)cc1 | inactive
16 | Fc1cccc(Nc2ncnc3c2cnn3-c2ccccc2)c1 | inactive
17 | COc1ccc([N+](=O)[O-])c(S(=O)(=O)c2ccc(Cl)cc2)n1 | inactive
18 | Cc1cc(C)c(S(=O)(=O)ON2C(=O)c3ccccc3C2=O)cc1C | inactive
19 | CC(OC(=O)c1ccco1)C(=O)Nc1nc(-c2ccccc2)cs1 (stereo unspecified) | inactive
20 | Cc1ccc(N/N=C(\C#N)C(N)=S)c(C)c1 | inactive
21 | C/C(=N\NC(=O)c1cc2ccccc2cc1O)c1ccccn1 | inactive
22 | Cc1ccc(C(=O)Sc2cccccc2=O)cc1 | inactive
23 | Cc1cc(S(=O)(=O)ON2C(=O)c3ccccc3C2=O)ccc1F | inactive
24 | CC(=O)Nc1ncnc2c1c(-c1ccc(Cl)cc1)nn2C(C)(C)C | inactive

Row | SMILES | GFP fluorescence, higher = induction
25 | COc1ccc(N2CCN(C(=O)c3ccc(Br)cc3)CC2)c([N+](=O)[O-])c1 | inactive
26 | Cc1ccc(S(=O)(=O)N2CC(C(=O)O)=CC[C@H]2c2ccc(Cl)cc2)cc1 | inactive
27 | Cc1cccc2c1NC(=O)/C2=C\C(=O)c1cccs1 | inactive
28 | O=C1NC(=O)N(CCc2ccc(F)cc2)C(=O)/C1=C/c1cccs1 | inactive
29 | COC(=O)c1cc(N2C(=O)C3C(C2=O)C2(C)C=CC3(C)O2)ccc1Cl (stereo unspecified) | inactive
30 | O=C(O)/C=C/C(=O)c1ccc2c(c1)CCc1ccccc1-2 | inactive
31 | CC(C)(C)c1nnc(N/N=C/c2cc(Br)ccc2O)n(N)c1=O | inactive
32 | Cc1cccnc1Nc1nc(-c2ccccn2)cs1 | inactive
33 | Cc1cc(NC(c2ccc(Cl)cc2)c2ccc3cccnc3c2O)no1 (stereo unspecified) | inactive
34 | O=C(Nc1ccc(O)cc1)C1CCCN1S(=O)(=O)c1ccc(F)cc1 (stereo unspecified) | inactive
35 | Cc1ccc(C2=NOC(=O)/C2=C\c2ccc(C)o2)cc1 | inactive
36 | CSc1nnc2c3cc(F)ccc3n(C)c2n1 | inactive
37 | Cc1nn2c(NCc3ccccn3)c3c(nc2c1-c1ccccc1)CCC3 | inactive
38 | O=C1C2C3C=CC(CO)(O3)C2C(=O)N1c1ccc(-c2ccccc2)cc1 (stereo unspecified) | inactive
39 | Cc1ccc(/C=C2/SC(=S)N(C3CCCCC3)C2=O)o1 | inactive
40 | CC(C)[C@@]1(c2ccccc2)ON(c2ccccc2C(F)(F)F)C1=O | inactive
41 | CCOC(=O)CSC1=NC(=O)/C(=C/c2ccc(Br)cc2)S1 | inactive
42 | COc1ccc2c(c1)S/C(=C\C(=O)c1ccncc1)N2C | inactive
43 | O=C(COc1ccccc1)NNC(=S)NC(=O)c1ccc(Cl)cc1Cl | inactive
44 | O=C(/C=C/c1ccccn1)c1ccc(Br)cc1O | inactive
45 | N/C(=N\OC(=O)c1cccc(Br)c1)c1ccccc1 | inactive
46 | CCCOc1ccc(C(=O)NNC(=S)NC(=O)c2ccccc2)cc1 | inactive
47 | CCOC(=O)Cn1cc(/C=C/[N+](=O)[O-])c2ccccc21 | inactive
48 | Cc1ccc(NC(=O)c2nc(S(=O)(=O)Cc3ccccc3)ncc2Cl)cc1 | inactive

Row | SMILES | GFP fluorescence, higher = induction
49 | Cc1cc2ccccn2c1C(=O)c1ccc([N+](=O)[O-])o1 | inactive
50 | COc1ccc2c(/C=C/c3cc[n+](C)cc3)c[nH]c2c1 | inactive
51 | Cc1cc(C)nc(S/C=C/C(=O)c2ccccc2)n1 | inactive
52 | O=[N+]([O-])c1ccc(S(=O)(=O)c2cccc(C(F)(F)F)c2)nc1 | inactive
53 | COc1ccc(C(=O)NC(=S)NNC(=O)CCc2ccccc2)cc1 | inactive
54 | Cc1ccc(N2C(=O)C(Cl)=C(Nc3c(C)n(C)n(-c4ccccc4)c3=O)C2=O)cc1 | inactive
55 | On1ccccc1=S | inactive
56 | O=C1ON=C(c2ccccc2)/C1=C\c1ccco1 | inactive
57 | O=S(=O)(CCN(CCS(=O)(=O)C(F)(F)F)CC1CCCO1)C(F)(F)F (stereo unspecified) | inactive
58 | N#Cc1c2ccc([N+](=O)[O-])cc2[n+]([O-])n1-c1ccccc1 | inactive
59 | O=C(O)c1ccc(COc2ccccc2C=C2C(=O)c3ccccc3C2=O)cc1 | inactive
60 | Oc1ccc(CNc2ccccc2)c2cccnc12 | inactive
61 | CCCCOc1ccc(C(=O)NNC(=S)NC(=O)CC)cc1 | inactive
62 | CCC1(c2ccccc2)ON(c2c(Br)cccc2Br)C1=O (stereo unspecified) | inactive
63 | O=C(/C=C/c1ccccn1)c1cc(Br)ccc1O | inactive
64 | CCN(CC)c1ccc2cc(-c3nc(-c4ccc(OC)cc4)cs3)c(=O)oc2c1 | inactive
65 | CC1(C(=O)NC(=S)NNC(=O)c2ccncc2)CCCCC1 | inactive
66 | CCC(C)/C(C)=N/NC(=O)c1ccc(COc2ccc(Cl)c(C)c2)cc1 (stereo unspecified) | inactive
67 | O=C(OCn1ncc(Br)c(Br)c1=O)c1ccccc1Cl | inactive
68 | Cc1cc(C)c(OCC(=O)Nc2nc(-c3ccccn3)cs2)c(C)c1 | inactive
69 | O=C(NC(=S)NNC(=O)c1cnccn1)c1ccc(Cl)cc1 | inactive
70 | O=c1c2sc(-c3ccccc3)cc2nc2n1CCC2 | inactive
71 | Cc1nc2ccc(NC(=O)c3oc4ccc(F)cc4c3C)cc2s1 | inactive
72 | O=C(O)c1ccn2c(C(=O)c3ccccc3)c(-c3ccccc3)cc2c1 | inactive

Row | SMILES | GFP fluorescence, higher = induction
73 | CCOc1ccccc1/C=c1\sc2ncnn2c1=O | inactive
74 | Cc1ccc2[nH]c(C)c(/C=C/c3cc[n+](C)cc3)c2c1 | inactive
75 | CCOC(=O)CSC1=NC(=O)/C(=C\c2ccc(Cl)cc2)S1 | inactive
76 | Cc1cc(Br)c2c(c1)/C(=C/C(=O)c1cccs1)C(=O)N2 | inactive
77 | CC(C)Oc1ccc(C(=O)/C=C2/C(=O)Nc3ccccc32)cc1 | inactive
78 | CCN(CC)C(=O)Oc1ccnc2cc(Cl)ccc12 | inactive
79 | O=C(/C=C/c1ccc(Cl)c([N+](=O)[O-])c1)c1cccnc1 | inactive
80 | Cc1ccccc1OCC(=O)NNC(=S)NC(=O)c1ccco1 | inactive
81 | O=C1ON=C(c2ccccc2)/C1=C/c1ccc(-c2ccccc2[N+](=O)[O-])o1 | inactive
82 | O=[N+]([O-])c1ccc(-c2cn3nc(-c4ccccc4)c(-c4ccccc4)nc3n2)cc1 | inactive
83 | CCc1nc2ccccc2c(=O)n1NC(=O)c1c(O)c2cccc3c2n(c1=O)CCC3 | inactive
84 | CC(Oc1ccc(Cl)cc1)C(=O)NNC(=S)NC(=O)c1ccco1 (stereo unspecified) | inactive
85 | COc1cc(SSc2cc(OC)cc([N+](=O)[O-])c2N)c(N)c([N+](=O)[O-])c1 | inactive
86 | O=c1c(-c2ccc(Cl)cc2)[n+]([O-])c2ccccc2n1O | inactive
87 | COc1cccc(/C=N/Nc2ccc([N+](=O)[O-])cn2)c1O | inactive
88 | CC(=O)SC(C[N+](=O)[O-])c1cn(C(C)=O)c2ccccc12 (stereo unspecified) | inactive
89 | CC(=O)[C@]1(O)Cc2c(O)c3c(c(O)c2[C@@H](O[C@H]2C[C@H](N)[C@H](O)[C@H](C)O2)C1)C(=O)c1ccccc1C3=O | inactive
90 | O=[N+]([O-])c1ccc(S(=O)(=O)c2ccccc2)nc1 | inactive
91 | CCc1sc(C(=O)Nc2nc(-c3ccccn3)cs2)cc1C | inactive
92 | CN(C)/C=C/C(=O)c1ccc(-c2ccc(Cl)cc2Cl)o1 | inactive
93 | O=C1C=C(c2ccc(Cl)cc2)C(=O)N1Nc1ccccc1 | inactive
94 | CC(=O)Oc1ccc(N2C(=O)C3C4C=CC(CO)(O4)C3C2=O)cc1 (stereo unspecified) | inactive
95 | Cc1ccc(/C=C2\SC(=S)N(Cc3ccccc3)C2=O)o1 | inactive

Same assay, conditions: S. cerevisiae CIT2-GFP strain, flow cytometry fluorescence, 3 h

Row | SMILES | EC50 [nM]
96 | CC1(C)C[C@H]2C=C(C=O)[C@]3(C=O)C[C@]3(C)[C@H]2C1 | 1410
